Assays:
Assay type in all cases: in vivo
[1] = test system: field corn (Zea mays L., var. Dekalb 535, CORN); experiment: Pre-emerge test, crop safety; details: crop damage, pre-emerge, phytotoxicity rating 0-100 at 14 days after application
Procedure, shortened: (§1)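 Plants grown in 10 cm pots of sandy loam mix received acetone-dissolved compounds through a moving flat-fan nozzle. Doses ranged from 15 to 1000 g ai/ha. Pre-emerge pots were seeded one day earlier, post-emerge pots 8–21 days earlier. Fourteen days on, each pot was graded 0–100 for damage.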

[2] = test system: upland rice (Oryza sp., var. Tebonnet, RICE); experiment: Pre-emerge test, crop safety; details: crop damage, pre-emerge, phytotoxicity rating 0-100 at 14 days after application
Procedure, shortened: as §1

[3] = test system: redroot pigweed (Amaranthus retroflexus, AMARE); experiment: Post-emerge test, greenhouse herbicide activity screening; details: post-emerge, phytotoxicity rating 0-100 at 14 days after application
Procedure, shortened: (§2)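 Sandy loam pots; pre-emerge: sown 1 d pre-spray, surface-watered after, then bottom-watered. Post-emerge: sown 8–21 d before, 2–3 leaf stage, + 0.25% v/v NIS, bottom-watered. Acetone, 187 l/ha track spray, 15–1000 g ai/ha. 0–100 injury score, day 14.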

[4] = test system: green foxtail (Setaria viridis, SETVI); experiment: as above; details: post-emerge, phytotoxicity rating 0-100 at 14 days after application
Procedure, shortened: as §2

[5] = test system: johnsongrass (Sorghum halepense, SORHA); experiment: as above; details: post-emerge, phytotoxicity rating 0-100 at 14 days after application
Procedure, shortened: as §2

[6] = test system: large crabgrass (Digitaria sanguinalis, DIGSA); experiment: as above; details: post-emerge, phytotoxicity rating 0-100 at 14 days after application
Procedure, shortened: as §2

[7] = test system: lambsquarters (Chenopodium album, CHEAL); experiment: as above; details: post-emerge, phytotoxicity rating 0-100 at 14 days after application
Procedure, shortened: as §2

[8] = test system: velvetleaf (Abutilon theophrasti, ABUTH); experiment: as above; details: post-emerge, phytotoxicity rating 0-100 at 14 days after application
Procedure, shortened: as §2

[9] = test system: ivyleaf morningglory (Ipomoea hederacea, IPOHE); experiment: as above; details: post-emerge, phytotoxicity rating 0-100 at 14 days after application
Procedure, shortened: as §2

[10] = test system: barnyardgrass (Echinochloa crus-galli, ECHCG); experiment: as above; details: post-emerge, phytotoxicity rating 0-100 at 14 days after application
Procedure, shortened: as §2

[11] = test system: sicklepod (Cassia obtusifolia, CASOB); experiment: as above; details: post-emerge, phytotoxicity rating 0-100 at 14 days after application
Procedure, shortened: as §2

[12] = test system: green foxtail (Setaria viridis, SETVI); experiment: Pre-emerge test, greenhouse herbicide activity screening; details: pre-emerge, phytotoxicity rating 0-100 at 14 days after application
Procedure, shortened: as §1

[13] = test system: large crabgrass (Digitaria sanguinalis, DIGSA); experiment: as above; details: pre-emerge, phytotoxicity rating 0-100 at 14 days after application
Procedure, shortened: as §1

[14] = test system: lambsquarters (Chenopodium album, CHEAL); experiment: as above; details: pre-emerge, phytotoxicity rating 0-100 at 14 days after application
Procedure, shortened: as §1

[15] = test system: velvetleaf (Abutilon theophrasti, ABUTH); experiment: as above; details: pre-emerge, phytotoxicity rating 0-100 at 14 days after application
Procedure, shortened: as §1

[16] = test system: ivyleaf morningglory (Ipomoea hederacea, IPOHE); experiment: as above; details: pre-emerge, phytotoxicity rating 0-100 at 14 days after application
Procedure, shortened: as §1

[17] = test system: barnyardgrass (Echinochloa crus-galli, ECHCG); experiment: as above; details: pre-emerge, phytotoxicity rating 0-100 at 14 days after application
Procedure, shortened: as §1

[18] = test system: sicklepod (Cassia obtusifolia, CASOB); experiment: as above; details: pre-emerge, phytotoxicity rating 0-100 at 14 days after application
Procedure, shortened: as §1

[19] = test system: redroot pigweed (Amaranthus retroflexus, AMARE); experiment: as above; details: pre-emerge, phytotoxicity rating 0-100 at 14 days after application
Procedure, shortened: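 Herbicidal damage is scored 0 (none) to 100 (complete plant death) two weeks after a simulated field spray. Rates span 15–1000 g ai/ha, delivered in acetone at 187 l/ha. For post-emergence treatments, plants have 2–3 leaves and the spray carries 0.25% v/v non-ionic surfactant.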

[20] = test system: field corn (Zea mays L., var. Dekalb 535, CORN); experiment: Post-emerge test, crop safety; details: post-emerge, crop damage rating 0-100 at 14 days after application
Procedure, shortened: (§3)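 Each test used a mechanized track sprayer delivering 187 l/ha of acetone solution at 15–1000 g ai/ha. Post-emerge foliage at 2–3 leaves was treated with added 0.25% v/v non-ionic surfactant and bottom-watered only. Injury was assessed on day 14, where 100 means total kill.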

[21] = test system: upland rice (Oryza sp., var. Tebonnet, RICE); experiment: Post-emerge test, crop safety; details: post-emerge, crop damage rating 0-100 at 14 days after application
Procedure, shortened: as §3

Structure (SMILES): Cc1nn(-c2c(Cl)cc(Cl)cc2NC(=O)c2ccc(F)cc2F)c(=O)n1C(F)F [Compound 6-13]
- Pre-emerge Herbicidal Activity CORN ([1]; rate 63 g ai/ha): 0
- Pre-emerge Herbicidal Activity CORN ([1]; rate 250 g ai/ha): 0
- Pre-emerge Herbicidal Activity RICE ([2]; rate 63 g ai/ha): 0
- Pre-emerge Herbicidal Activity RICE ([2]; rate 250 g ai/ha): 10
- Post-emerge Herbicidal Activity AMARE ([3]; 63 g ai/ha): 70
- Post-emerge Herbicidal Activity AMARE ([3]; 250 g ai/ha): 90
- Post-emerge Herbicidal Activity SETVI ([4]; 63 g ai/ha): 50
- Post-emerge Herbicidal Activity SETVI ([4]; 250 g ai/ha): 90
- Post-emerge Herbicidal Activity SORHA ([5]; 63 g ai/ha): 0
- Post-emerge Herbicidal Activity SORHA ([5]; 250 g ai/ha): 10
- Post-emerge Herbicidal Activity DIGSA ([6]; 63 g ai/ha): 20
- Post-emerge Herbicidal Activity DIGSA ([6]; 250 g ai/ha): 30
- Post-emerge Herbicidal Activity CHEAL ([7]; 63 g ai/ha): 85
- Post-emerge Herbicidal Activity CHEAL ([7]; 250 g ai/ha): 90
- Post-emerge Herbicidal Activity ABUTH ([8]; 63 g ai/ha): 100
- Post-emerge Herbicidal Activity ABUTH ([8]; 250 g ai/ha): 90
- Post-emerge Herbicidal Activity IPOHE ([9]; 63 g ai/ha): 50
- Post-emerge Herbicidal Activity IPOHE ([9]; 250 g ai/ha): 60
- Post-emerge Herbicidal Activity ECHCG ([10]; 63 g ai/ha): 0
- Post-emerge Herbicidal Activity ECHCG ([10]; 250 g ai/ha): 30
- Post-emerge Herbicidal Activity CASOB ([11]; 63 g ai/ha): 0
- Post-emerge Herbicidal Activity CASOB ([11]; 250 g ai/ha): 30
- Pre-emerge Herbicidal Activity SETVI ([12]; rate 63 g ai/ha): 80
- Pre-emerge Herbicidal Activity SETVI ([12]; rate 250 g ai/ha): 100
- Pre-emerge Herbicidal Activity DIGSA ([13]; rate 63 g ai/ha): 80
- Pre-emerge Herbicidal Activity DIGSA ([13]; rate 250 g ai/ha): 90
- Pre-emerge Herbicidal Activity CHEAL ([14]; rate 63 g ai/ha): 40
- Pre-emerge Herbicidal Activity CHEAL ([14]; rate 250 g ai/ha): 100
- Pre-emerge Herbicidal Activity ABUTH ([15]; rate 63 g ai/ha): 10
- Pre-emerge Herbicidal Activity ABUTH ([15]; rate 250 g ai/ha): 40
- Pre-emerge Herbicidal Activity IPOHE ([16]; rate 63 g ai/ha): 0
- Pre-emerge Herbicidal Activity IPOHE ([16]; rate 250 g ai/ha): 0
- Pre-emerge Herbicidal Activity ECHCG ([17]; rate 63 g ai/ha): 10
- Pre-emerge Herbicidal Activity ECHCG ([17]; rate 250 g ai/ha): 40
- Pre-emerge Herbicidal Activity CASOB ([18]; rate 63 g ai/ha): 0
- Pre-emerge Herbicidal Activity CASOB ([18]; rate 250 g ai/ha): 0
- Pre-emerge Herbicidal Activity AMARE ([19]; rate 63 g ai/ha): 60
- Pre-emerge Herbicidal Activity AMARE ([19]; rate 250 g ai/ha): 100
- Post-emerge Herbicidal Activity CORN ([20]; 63 g ai/ha): 15
- Post-emerge Herbicidal Activity CORN ([20]; 250 g ai/ha): 20
- Post-emerge Herbicidal Activity RICE ([21]; 63 g ai/ha): 10
- Post-emerge Herbicidal Activity RICE ([21]; 250 g ai/ha): 30

— patent publication US6355799B1, “Substituted benzene compounds, process for their preparation, and herbicidal and defoliant compositions containing them” (ISK Americas Incorporated, priority 1997, dated 2002)
